In patent US9006242B2, “Substituted benzene compounds” (Epizyme, Inc., priority 2012, dated 2015):
Where two headings read alike, the source gives them in different places.

Key:
[1] = type: in vivo; conditions: oral, BID, up to 28 days, Karpas-422 xenograft mice
CYP3A = assay: CYP induction in cryopreserved human hepatocytes (mRNA), CYP3A; type: in vitro ADME; conditions: positive control rifampicin
CYP2C9 [2] = assay: CYP induction in cryopreserved human hepatocytes (mRNA), CYP2C9; type: in vitro ADME; conditions: positive control rifampicin
[3] = Metabolic stability in human liver microsomes; conditions: for metabolic clearance in human liver microsomes (in words): HLM; for CLint scaled: human, human liver microsomes, pH 7.4
CYP1A [4] = assay: CYP induction in cryopreserved human hepatocytes (mRNA), CYP1A; type: in vitro ADME; conditions: positive control β-naphthoflavone
[5] = Metabolic stability in monkey liver microsomes; conditions: cynomolgus monkey, pH 7.4
CYP2C9 [6] = assay: in vitro; conditions: human, pooled human liver microsomes, pH 7.4
[7] = tested on: cryopreserved human hepatocytes; assay: Fraction of hepatocytes remaining (DAPI cell count) in CYP induction study; type: cell-based; conditions: 48 hours
Description: After completion of the incubation, the cells were washed with DPBS. After washing with DPBS, the cells were fixed using 3.7% p-formaldehyde in DPBS for one hour. The formaldehyde was removed and 0.6 μmol/L DAPI in DPBS was added. The cells were stained by DAPI for 20 minutes and then washed three times with DPBS. Cells were counted using an ArrayScan II (Cellomics, Pittsburgh, Pa.) with a 5× objective lens. Fraction of hepatocytes remaining was calculated using the number of cells found at a treatment condition divided by cells found with the vehicle control.

CYP2C19 = CYP2C19 (Homo sapiens (Human), UniProt P33261); conditions: read-out: Reversible inhibition IC50 CYP2C19; human liver microsomes
Sequence of CYP2C19 (P33261 whole entry): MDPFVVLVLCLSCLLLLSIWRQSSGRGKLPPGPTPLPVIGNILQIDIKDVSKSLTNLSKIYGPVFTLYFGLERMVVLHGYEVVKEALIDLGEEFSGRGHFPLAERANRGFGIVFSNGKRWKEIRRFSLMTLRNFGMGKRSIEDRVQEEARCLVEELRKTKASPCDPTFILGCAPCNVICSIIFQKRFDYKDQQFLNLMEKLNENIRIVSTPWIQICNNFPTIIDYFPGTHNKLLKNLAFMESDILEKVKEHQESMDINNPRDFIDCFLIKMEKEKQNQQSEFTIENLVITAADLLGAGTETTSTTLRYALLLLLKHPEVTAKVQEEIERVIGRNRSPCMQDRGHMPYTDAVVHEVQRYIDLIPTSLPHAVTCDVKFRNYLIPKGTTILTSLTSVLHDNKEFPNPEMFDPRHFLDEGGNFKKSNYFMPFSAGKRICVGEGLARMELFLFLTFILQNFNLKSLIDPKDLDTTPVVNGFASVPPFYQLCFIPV

[8] = Metabolic stability in mouse liver microsomes; conditions: pH 7.4
CYP1A [9] = assay: in vitro; conditions: human, pooled human liver microsomes, pH 7.4
Karpas-422 xenograft = assay: Efficacy study in Karpas-422 xenograft model; type: in vivo, mice
CYP2C8 = CYP2C8 (Homo sapiens (Human), UniProt P10632); assay: Reversible CYP inhibition in pooled human liver microsomes, CYP2C8; conditions: read-out: Reversible inhibition IC50 CYP2C8
Sequence of CYP2C8 (P10632 whole entry): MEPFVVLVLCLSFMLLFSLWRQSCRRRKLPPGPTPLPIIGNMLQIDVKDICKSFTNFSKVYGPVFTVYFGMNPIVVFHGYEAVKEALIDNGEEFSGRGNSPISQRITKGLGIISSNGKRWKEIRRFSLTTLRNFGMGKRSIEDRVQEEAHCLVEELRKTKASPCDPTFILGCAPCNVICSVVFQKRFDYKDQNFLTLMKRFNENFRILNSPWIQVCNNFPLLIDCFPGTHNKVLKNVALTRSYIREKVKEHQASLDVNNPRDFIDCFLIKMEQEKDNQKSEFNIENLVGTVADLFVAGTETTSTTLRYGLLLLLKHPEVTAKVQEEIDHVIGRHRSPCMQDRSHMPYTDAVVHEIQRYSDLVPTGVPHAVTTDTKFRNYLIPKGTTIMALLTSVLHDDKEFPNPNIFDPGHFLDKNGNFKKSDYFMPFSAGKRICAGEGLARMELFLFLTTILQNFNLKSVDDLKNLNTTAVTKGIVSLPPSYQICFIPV

[10] = Metabolic stability in dog liver microsomes; conditions: pH 7.4
[11] = Metabolic stability in rat liver microsomes; conditions: pH 7.4
CYP3A4/5 [12] = assay: in vitro; conditions: human, pooled human liver microsomes
CYP3A4/5 [13] = assay: Time-dependent inactivation (TDI) of CYP3A4/5 in human liver microsomes; type: in vitro ADME; conditions: for inactivation of CYP3A4/5 (in words): using midazolam as probe
[14] = tested on: human cytochromes P450 (CYP); assay: Reversible CYP inhibition in human liver microsomes, overall assessment
CYP2B6 = assay: CYP induction in cryopreserved human hepatocytes (mRNA), CYP2B6; type: in vitro ADME; conditions: positive control phenobarbital
CYP2D6 = CYP2D6 (Homo sapiens (Human), UniProt P10635); assay: Reversible CYP inhibition in pooled human liver microsomes, CYP2D6; conditions: read-out: Reversible inhibition IC50 CYP2D6
Sequence of CYP2D6 (P10635 whole entry): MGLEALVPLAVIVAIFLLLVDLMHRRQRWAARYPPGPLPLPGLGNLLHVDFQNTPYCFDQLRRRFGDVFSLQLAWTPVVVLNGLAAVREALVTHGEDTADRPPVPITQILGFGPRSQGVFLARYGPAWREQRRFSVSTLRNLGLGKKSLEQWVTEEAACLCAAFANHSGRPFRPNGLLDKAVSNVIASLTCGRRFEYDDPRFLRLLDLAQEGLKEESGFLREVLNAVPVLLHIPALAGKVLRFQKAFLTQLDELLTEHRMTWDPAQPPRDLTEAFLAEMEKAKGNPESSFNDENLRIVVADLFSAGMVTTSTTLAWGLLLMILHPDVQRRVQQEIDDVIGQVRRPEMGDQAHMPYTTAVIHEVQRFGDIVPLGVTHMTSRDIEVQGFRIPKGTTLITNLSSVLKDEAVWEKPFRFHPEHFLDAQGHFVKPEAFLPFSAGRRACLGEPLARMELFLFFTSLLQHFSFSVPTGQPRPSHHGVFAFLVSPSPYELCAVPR

[15] = molecular target: wild-type EZH2 (PRC2 complex) (Homo sapiens (Human), UniProt Q15910); assay: Wild-type PRC2 enzyme assay (WT EZH2)
Sequence of wild-type EZH2 (PRC2 complex) (Q15910 other isoform, or with tags, fused parts or gaps): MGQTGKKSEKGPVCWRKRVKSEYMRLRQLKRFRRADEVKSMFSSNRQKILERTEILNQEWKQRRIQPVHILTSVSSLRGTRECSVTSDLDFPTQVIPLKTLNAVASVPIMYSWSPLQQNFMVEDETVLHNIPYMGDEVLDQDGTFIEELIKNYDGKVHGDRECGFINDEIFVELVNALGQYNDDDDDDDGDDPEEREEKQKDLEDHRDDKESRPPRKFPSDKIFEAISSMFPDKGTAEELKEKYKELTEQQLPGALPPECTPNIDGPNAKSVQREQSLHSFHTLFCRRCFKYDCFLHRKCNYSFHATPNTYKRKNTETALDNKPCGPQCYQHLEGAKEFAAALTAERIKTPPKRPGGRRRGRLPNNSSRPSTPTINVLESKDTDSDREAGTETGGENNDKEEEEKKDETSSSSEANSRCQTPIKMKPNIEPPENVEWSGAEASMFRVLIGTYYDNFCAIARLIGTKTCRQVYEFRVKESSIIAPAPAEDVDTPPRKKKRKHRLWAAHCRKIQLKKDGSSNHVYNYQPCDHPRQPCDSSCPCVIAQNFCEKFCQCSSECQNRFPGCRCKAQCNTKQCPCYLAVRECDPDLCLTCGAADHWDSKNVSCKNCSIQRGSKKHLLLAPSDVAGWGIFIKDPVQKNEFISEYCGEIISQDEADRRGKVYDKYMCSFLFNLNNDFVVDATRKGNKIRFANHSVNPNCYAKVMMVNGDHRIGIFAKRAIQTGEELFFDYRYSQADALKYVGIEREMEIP
Sequence of wild-type EZH2 (PRC2 complex) (O75530 whole entry partner): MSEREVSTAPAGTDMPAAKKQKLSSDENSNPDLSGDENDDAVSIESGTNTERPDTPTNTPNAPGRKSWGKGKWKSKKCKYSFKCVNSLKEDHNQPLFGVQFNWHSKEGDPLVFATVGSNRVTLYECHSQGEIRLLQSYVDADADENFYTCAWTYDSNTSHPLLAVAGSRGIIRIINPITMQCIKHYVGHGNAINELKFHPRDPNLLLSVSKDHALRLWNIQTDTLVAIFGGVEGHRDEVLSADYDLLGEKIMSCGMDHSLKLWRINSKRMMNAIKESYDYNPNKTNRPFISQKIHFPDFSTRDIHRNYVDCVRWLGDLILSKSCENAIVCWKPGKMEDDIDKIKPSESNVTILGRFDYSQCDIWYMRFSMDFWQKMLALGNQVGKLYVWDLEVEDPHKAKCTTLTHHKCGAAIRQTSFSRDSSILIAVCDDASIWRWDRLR
Sequence of wild-type EZH2 (PRC2 complex) (Q15022 whole entry partner): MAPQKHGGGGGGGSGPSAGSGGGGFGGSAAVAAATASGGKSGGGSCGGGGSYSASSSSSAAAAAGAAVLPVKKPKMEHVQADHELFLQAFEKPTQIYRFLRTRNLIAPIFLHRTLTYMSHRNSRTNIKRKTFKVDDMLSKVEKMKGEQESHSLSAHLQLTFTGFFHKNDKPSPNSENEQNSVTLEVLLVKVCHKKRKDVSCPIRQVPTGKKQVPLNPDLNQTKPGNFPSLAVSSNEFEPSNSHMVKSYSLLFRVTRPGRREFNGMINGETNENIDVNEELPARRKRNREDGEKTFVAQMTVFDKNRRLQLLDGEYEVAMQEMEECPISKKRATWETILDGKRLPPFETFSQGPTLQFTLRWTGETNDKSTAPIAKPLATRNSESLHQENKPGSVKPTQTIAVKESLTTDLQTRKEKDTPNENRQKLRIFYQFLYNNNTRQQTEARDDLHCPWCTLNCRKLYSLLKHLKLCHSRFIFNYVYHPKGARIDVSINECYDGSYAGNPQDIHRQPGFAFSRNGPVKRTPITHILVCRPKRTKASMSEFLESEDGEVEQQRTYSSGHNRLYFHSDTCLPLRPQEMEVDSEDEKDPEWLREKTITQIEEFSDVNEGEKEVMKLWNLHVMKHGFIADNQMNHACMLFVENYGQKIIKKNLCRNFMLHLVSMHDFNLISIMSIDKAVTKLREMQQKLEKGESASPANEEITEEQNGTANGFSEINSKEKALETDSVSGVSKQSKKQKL
Sequence of wild-type EZH2 (PRC2 complex) (Q09028 whole entry partner): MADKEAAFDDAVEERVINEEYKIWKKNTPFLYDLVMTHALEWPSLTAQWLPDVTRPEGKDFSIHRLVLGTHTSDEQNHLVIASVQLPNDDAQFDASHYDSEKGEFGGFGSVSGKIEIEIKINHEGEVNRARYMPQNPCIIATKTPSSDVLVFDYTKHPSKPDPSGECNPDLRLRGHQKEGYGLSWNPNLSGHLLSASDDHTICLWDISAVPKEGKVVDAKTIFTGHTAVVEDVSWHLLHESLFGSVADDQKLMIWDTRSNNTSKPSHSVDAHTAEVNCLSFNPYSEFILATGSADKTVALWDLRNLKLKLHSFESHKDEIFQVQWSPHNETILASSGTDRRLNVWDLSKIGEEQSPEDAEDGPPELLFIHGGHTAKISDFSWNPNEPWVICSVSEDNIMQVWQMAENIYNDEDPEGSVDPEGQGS

EZH2 (PRC2 complex) = EZH2 (PRC2 complex) (Homo sapiens (Human), UniProt Q15910); assay: PRC2 enzyme assay on peptide substrate (EZH2 peptide v2)
Sequence of EZH2 (PRC2 complex) (Q15910 other isoform, or with tags, fused parts or gaps): as the sequence (Q15910 other isoform, or with tags, fused parts or gaps) above
Sequence of EZH2 (PRC2 complex) (O75530 whole entry partner): as the sequence (O75530 whole entry partner) above
Sequence of EZH2 (PRC2 complex) (Q15022 whole entry partner): as the sequence (Q15022 whole entry partner) above
Sequence of EZH2 (PRC2 complex) (Q09028 whole entry partner): as the sequence (Q09028 whole entry partner) above

[16] = pH 7.4, probe testosterone (250 μmol/L), CYP3A4/5, human liver microsomes, read-out: Time-Dependent Inactivation KI

SMILES | CYP3A % Positive Control (CYP3A; 1 μM) [%] | CYP3A % Positive Control (CYP3A; 10 μM) [%] | CYP2C9 % Positive Control (CYP2C9 [2]; 1 μM) [%] | CYP2C9 % Positive Control (CYP2C9 [2]; 10 μM) [%] | metabolic clearance in human liver microsomes (in words) [3] | CLint scaled [3] [mL/min/kg] | CLint scaled [5] [mL/min/kg] | IC50 (CYP2C9 [6]) [µM] | % Cell Remaining vs. Control ([7]; 1 μM) [%] | % Cell Remaining vs. Control ([7]; 10 μM) [%] | IC50 (CYP2C19) [µM] | CLint scaled [8] [mL/min/kg] | IC50 (CYP1A [9]) [µM] | CLint scaled [10] [mL/min/kg] | CLint scaled [11] [mL/min/kg] | IC50 (CYP3A4/5 [12]; pH 7.4, probe midazolam) [µM] | IC50 (CYP3A4/5 [12]; pH 7.4, probe testosterone) [µM] | KI (inactivation) (CYP3A4/5 [13]; [16]) [µM] | inactivation of CYP3A4/5 (in words) (CYP3A4/5 [13]) | reversible CYP inhibition (in words) [14] | also measured
CCN(c1cc(-c2ccc(OCCOC)cc2)cc(C(=O)NCc2c(C)cc(C)[nH]c2=O)c1C)[C@H]1CC[C@H](N(C)C)CC1 [Compound 1, N-((4,6-dimethyl-2-oxo-1,2-dihydropyridin-3-yl)methyl)-5-(((trans)-4-(dimethylamino)-cyclohexyl)(ethyl)-amino)-4′-(2-methoxyethoxy)-4-methyl-[1,1′-biphenyl]-3-carboxamide] | 13.9 | 13.3 | 43.5 | 52.6 | low metabolic clearance | 10.5 | 58.6 | > 100 | 107.44 | 99.00 | 89.6 | 15.4 | > 100 | 8.1 | 14.8 | 40.5 | > 100 | 6.4 | time-, concentration-, and NADPH-dependent inactivation of CYP3A4/5 | no significant reversible inhibition | tolerability (in words) [1]: well tolerated; CYP1A % Positive Control (CYP1A [4]; 1 μM): 2.8%; CYP1A % Positive Control (CYP1A [4]; 10 μM): 3.0%; tumors large enough for analysis at day 28 (Karpas-422 xenograft; 125 mg/kg BID x28, p.o.): 5 out of 10; tumors large enough for analysis at day 28 (Karpas-422 xenograft; 250 mg/kg BID x28, p.o.): 1 out of 10; tumors large enough for analysis at day 28 (Karpas-422 xenograft; 500 mg/kg BID x28, p.o.): too small for analysis; anti-tumor effect in Karpas-422 xenograft model (in words) (Karpas-422 xenograft; oral, BID, up to 28 days, 62.5-500 mg/kg): tumor stasis and regression; IC50 (CYP2C8): > 100 µM; KI (inactivation) (CYP3A4/5 [13]; human, human liver microsomes, pH 7.4, CYP3A4/5, footnote to ** not given, read-out: Time-Dependent Inactivation KI, second value in brackets marked **): 3.3 µM; CYP2B6 % Positive Control (CYP2B6; 1 μM): 18.0%; CYP2B6 % Positive Control (CYP2B6; 10 μM): 26.3%
CCN(c1cc(C#CCN2CCOCC2)cc(C(=O)NCc2c(C)cc(C)[nH]c2=O)c1C)[C@H]1CC[C@H](N(C)CCOC)CC1 [Compound 2, N-((4,6-dimethyl-2-oxo-1,2-dihydropyridin-3-yl)methyl)-3-(ethyl((trans)-4-((2-methoxyethyl)(methyl)amino)cyclohexyl)amino)-2-methyl-5-(3-morpholinoprop-1-yn-1-yl)benzamide] |  |  |  |  | low metabolic clearance | 8.8 | 32.8 | > 100 | 124.70 | 120.90 | > 100 | 17.6 | > 100 | 34.3 | 14.8 | > 100 | > 100 | 22.3 | time-, concentration-, and NADPH-dependent inactivation of CYP3A4/5 | no significant reversible inhibition | IC50 (CYP2C8): > 100 µM; IC50 (CYP2D6): > 100 µM
CCN(c1cc(C#CC2CCN(C)CC2)cc(C(=O)NCc2c(C)cc(C)[nH]c2=O)c1C)C1CCOCC1 [Compound 105, N-((4,6-Dimethyl-2-oxo-1,2-dihydropyridin-3-yl)methyl)-3-(ethyl(tetrahydro-2H-pyran-4-yl)amino)-2-methyl-5-((1-methylpiperidin-4-yl)ethynyl)benzamide] | 18.1 | 33.8 | 50.4 | 76.3 | low metabolic clearance | 42.1 | 74.8 | 75.7 | 103.19 | 97.49 | 33.6 | 54.7 | > 100 | 64.2 | 47.5 | 9.67 | > 100 | 10.2 | time-, concentration-, and NADPH-dependent inactivation of CYP3A4/5 | potentially significant inhibition of CYP2D6 and CYP3A4 (midazolam) | IC50 [15]: < 0.01 µM; CYP1A % Positive Control (CYP1A [4]; 1 μM): 3.0%; CYP1A % Positive Control (CYP1A [4]; 10 μM): 4.4%; IC50 (EZH2 (PRC2 complex)): 0.0084 µM; IC50 (CYP2D6): 2.95 µM; CYP2B6 % Positive Control (CYP2B6; 1 μM): 25.5%; CYP2B6 % Positive Control (CYP2B6; 10 μM): 52.2%
